Drawing on ChEMBL document CHEMBL1134814, “New anti-MRSA cephalosporins with a basic aminopyridine at the C-7 position” (2001), this text covers MIC for 19 compounds.

Values after ≈ are worked out from the molar mass of the structure shown.

Assay type in all cases: functional
Assay [1] concerns Staphylococcus aureus. The experiment in a line: In vitro inhibition of growth of methicillin-resistant Staphylococcus aureus MRSA spain 356 (clinical isolates).
For assay [2], the system named is Staphylococcus aureus. The experiment in a line: In vitro inhibition of growth of methicillin-resistant Staphylococcus aureus MRSA ATCC 335893 (clinical isolates).
For assay [3], the system named is Staphylococcus aureus. The experiment in a line: In vitro inhibition of growth of methicillin-resistant Staphylococcus aureus MRSA 76 (clinical isolates).

One may read the MIC as the least concentration at which growth counts as inhibited. High values mean weaker potency, low ones greater potency. Regarding `NCCSCc1nnsc1SC1=C(C(=O)O)N2C(=O)[C@@H](NC(=O)/C(=N\O)c3cccc(N)n3)[C@H]2SC1`, the MIC in the assay with Staphylococcus aureus [1], against Staphylococcus aureus [2] and in the assay with Staphylococcus aureus [3] was 1 µg/mL (≈ 1.76 µM) each time.

For the compound `NCCCSc1nsc(SC2=C(C(=O)O)N3C(=O)[C@@H](NC(=O)/C(=N\O)c4cccc(N)n4)[C@H]3SC2)n1`, the MIC in the assay with Staphylococcus aureus [1], in the assay on Staphylococcus aureus [2] and against Staphylococcus aureus [3] was 2 µg/mL (≈ 3.52 µM) throughout.

As for `NCCSc1nccnc1SC1=C(C(=O)O)N2C(=O)[C@@H](NC(=O)/C(=N\O)c3cccc(N)n3)[C@H]2SC1`, the MIC in the assay on Staphylococcus aureus [1], against Staphylococcus aureus [2] and in the assay on Staphylococcus aureus [3] was 2 µg/mL (≈ 3.65 µM) throughout.

For the compound `NCCSCc1nc(N)sc1SC1=C(C(=O)O)N2C(=O)[C@@H](NC(=O)/C(=N\O)c3cccc(N)n3)[C@H]2SC1`, the MIC was 4 µg/mL (≈ 6.86 µM) in the assay on Staphylococcus aureus [1], 2 µg/mL (≈ 3.43 µM) in the assay on Staphylococcus aureus [2] and 8 µg/mL (≈ 13.7 µM) against Staphylococcus aureus [3].

Consider `NCCSc1nsc(SC2=C(C(=O)O)N3C(=O)[C@@H](NC(=O)/C(=N\O)c4cccc(N)n4)[C@H]3SC2)n1`, for which the MIC against Staphylococcus aureus [1], with Staphylococcus aureus [2] and in the assay on Staphylococcus aureus [3] was 2 µg/mL (≈ 3.61 µM) throughout.

As to `C[C@@H](O)[C@H]1C(=O)N2C(C(=O)O)=C(SCCNC=N)C[C@H]12` [IMIPENEM ANHYDROUS], the MIC in the assay with Staphylococcus aureus [1], against Staphylococcus aureus [2] and against Staphylococcus aureus [3] was 32 µg/mL (≈ 107 µM) each time.

For the compound `NCCSCc1ccccc1SC1=C(C(=O)O)N2C(=O)[C@@H](NC(=O)/C(=N\O)c3cccc(N)n3)[C@H]2SC1`, the MIC against Staphylococcus aureus [1], with Staphylococcus aureus [2] and against Staphylococcus aureus [3] was 1 µg/mL (≈ 1.78 µM) each time.

In the case of `NCCSCc1nc(SCCN)sc1SC1=C(C(=O)O)N2C(=O)[C@@H](NC(=O)/C(=N\O)c3cccc(N)n3)[C@H]2SC1`, the minimum inhibitory concentration (MIC) against Staphylococcus aureus [1], in the assay with Staphylococcus aureus [2] and in the assay with Staphylococcus aureus [3] was 1 µg/mL (≈ 1.56 µM) in each case.

Regarding `NCCSCc1cnccc1SC1=C(C(=O)O)N2C(=O)[C@@H](NC(=O)/C(=N\O)c3nc(N)sc3Cl)[C@H]2SC1`, the MIC in the assay on Staphylococcus aureus [1], against Staphylococcus aureus [2] and with Staphylococcus aureus [3] was 1 µg/mL (≈ 1.66 µM) throughout.

Turning to `NCCSCc1nnsc1SC1=C(C(=O)O)N2C(=O)[C@@H](NC(=O)/C(=N\O)c3csc(N)n3)[C@H]2SC1`, the minimum inhibitory concentration (MIC) against Staphylococcus aureus [1], with Staphylococcus aureus [2] and with Staphylococcus aureus [3] was 1 µg/mL (≈ 1.74 µM) throughout.

Regarding `NCCSc1cncc(SC2=C(C(=O)O)N3C(=O)[C@@H](NC(=O)/C(=N\O)c4cccc(N)n4)[C@H]3SC2)n1`, the MIC with Staphylococcus aureus [1] was found to be 16 µg/mL (≈ 29.2 µM); with Staphylococcus aureus [2] it was 8 µg/mL (≈ 14.6 µM); in the assay with Staphylococcus aureus [3], 16 µg/mL (≈ 29.2 µM).

Turning to `NCCSCc1csc(SC2=C(C(=O)O)N3C(=O)[C@@H](NC(=O)/C(=N\O)c4cccc(N)n4)[C@H]3SC2)n1`, the MIC worked out at 2 µg/mL (≈ 3.52 µM) with Staphylococcus aureus [1], 1 µg/mL (≈ 1.76 µM) against Staphylococcus aureus [2] and 2 µg/mL (≈ 3.52 µM) in the assay with Staphylococcus aureus [3].

In the case of `Cc1nc(CSCCN)c(SC2=C(C(=O)O)N3C(=O)[C@@H](NC(=O)/C(=N\O)c4cccc(N)n4)[C@H]3SC2)s1`, the MIC with Staphylococcus aureus [1], in the assay on Staphylococcus aureus [2] and against Staphylococcus aureus [3] was 2 µg/mL (≈ 3.44 µM) throughout.

Consider `COc1nc(CSCCN)c(SC2=C(C(=O)O)N3C(=O)[C@@H](NC(=O)/C(=N\O)c4cccc(N)n4)[C@H]3SC2)s1`, for which the MIC in the assay with Staphylococcus aureus [1], with Staphylococcus aureus [2] and in the assay with Staphylococcus aureus [3] was 4 µg/mL (≈ 6.69 µM) throughout.

As to `NCCSCc1ncsc1SC1=C(C(=O)O)N2C(=O)[C@@H](NC(=O)/C(=N\O)c3cccc(N)n3)[C@H]2SC1`, the results for the MIC with Staphylococcus aureus [1], with Staphylococcus aureus [2] and in the assay with Staphylococcus aureus [3] were 2 µg/mL (≈ 3.52 µM), 1 µg/mL (≈ 1.76 µM) and 2 µg/mL (≈ 3.52 µM), respectively.

For `NCCSCc1nsc(SC2=C(C(=O)O)N3C(=O)[C@@H](NC(=O)/C(=N\O)c4cccc(N)n4)[C@H]3SC2)n1`, the MIC in the assay with Staphylococcus aureus [1] stood at 4 µg/mL (≈ 7.03 µM); with Staphylococcus aureus [2], 2 µg/mL (≈ 3.52 µM); with Staphylococcus aureus [3], 4 µg/mL (≈ 7.03 µM).

As to `NCCSc1nccc(SC2=C(C(=O)O)N3C(=O)[C@@H](NC(=O)/C(=N\O)c4cccc(N)n4)[C@H]3SC2)n1`, the minimal inhibitory concentration (MIC) in the assay on Staphylococcus aureus [1] stood at 16 µg/mL (≈ 29.2 µM); against Staphylococcus aureus [2] it was 8 µg/mL (≈ 14.6 µM); in the assay with Staphylococcus aureus [3], 16 µg/mL (≈ 29.2 µM).

As to `NCCSCc1cnccc1SC1=C(C(=O)O)N2C(=O)[C@@H](NC(=O)/C(=N\O)c3cccc(N)n3)[C@H]2SC1`, the minimal inhibitory concentration (MIC) was 2 µg/mL (≈ 3.56 µM) in the assay on Staphylococcus aureus [1], 2 µg/mL (≈ 3.56 µM) in the assay on Staphylococcus aureus [2] and 1 µg/mL (≈ 1.78 µM) with Staphylococcus aureus [3].

Turning to `NCCSCc1nc(Cl)sc1SC1=C(C(=O)O)N2C(=O)[C@@H](NC(=O)/C(=N\O)c3cccc(N)n3)[C@H]2SC1`, the MIC with Staphylococcus aureus [1] was 1 µg/mL (≈ 1.66 µM); against Staphylococcus aureus [2], 1 µg/mL (≈ 1.66 µM); with Staphylococcus aureus [3], 2 µg/mL (≈ 3.32 µM).
